Experimental data taken from US20260022142A1, “MACROCYCLIC IMMUNOMODULATORS” (Bristol-Myers Squibb Company, priority 2022, published 2026).
pIC50: −log10 of the molar value. Numbered stars: 1 amine (or outer) side, 2 acyl side, 3 side chain; on linkers, the order of the positions; unused ones are H or OH. Bridge positions count the residues as written; N and C are the ends. Square brackets hold non-standard residues; d marks the D form. Peptide text beside a SMILES is read from it. * marks the point of attachment. ξ: configuration not given here. Phe(4-CONH2) = NC(=O)c1ccc(C[C@H](N)C(=O)O)cc1; Phe(4-COOH) = N[C@@H](Cc1ccc(C(=O)O)cc1)C(=O)O; Bip = N[C@@H](Cc1ccc(-c2ccccc2)cc1)C(=O)O; NH(CH2)14COOH = O=C(O)CCCCCCCCCCCCCCN*; Phe(3-F) = N[C@@H](Cc1cccc(F)c1)C(=O)O; Phe(3-Me) = Cc1cccc(C[C@H](N)C(=O)O)c1; γGlu = O=C(O)[C@H](CCC(=O)[*:2])N[*:1]; Val(3-OH) = CC(C)(O)[C@H](N)C(=O)O; 4Pal = N[C@@H](Cc1ccncc1)C(=O)O; Cha = N[C@@H](CC1CCCCC1)C(=O)O; Thr(3ξ) = CC(O)[C@H](N)C(=O)O; Phg = N[C@H](C(=O)O)c1ccccc1; Carboxymethyl = O=C(O)C*; Orn = NCCC[C@H](N)C(=O)O; Aun = NCCCCCCCCCCC(=O)O; Dab = NCC[C@H](N)C(=O)O; Dap = NC[C@H](N)C(=O)O; AEEA = NCCOCCOCC(=O)O

Each molecule was assayed against T1, PD-1/PD-L1 interaction (PE-labeled human PD-L1-Ig binding to Jurkat cell line over-expressing human PD-1) (Homo sapiens, UniProt Q15116) (assay: Jurkat-PD-1 Cell Binding High-Content Screening Assay (CBA)). Conditions: Jurkat cell line over-expressing human PD-1; PE-labeled PD-L1-Ig 20 nM final; read-out: Jurkat hPD1-PDL1 IC50.
T1 construct: expressed in transfected cells; host or cells: Jurkat
T1 sequence (Q15116 25-288): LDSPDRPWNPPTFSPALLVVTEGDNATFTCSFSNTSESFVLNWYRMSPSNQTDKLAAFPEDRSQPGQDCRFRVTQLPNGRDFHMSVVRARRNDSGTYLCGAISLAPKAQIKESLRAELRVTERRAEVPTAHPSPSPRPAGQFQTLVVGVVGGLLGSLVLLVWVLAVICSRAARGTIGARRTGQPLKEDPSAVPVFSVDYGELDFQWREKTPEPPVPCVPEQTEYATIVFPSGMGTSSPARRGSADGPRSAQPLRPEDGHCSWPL
Format: cell-based
Method: Example 2: Jurkat-PD-1 Cell Binding High-Content Screening Assay (CBA)
Phycoerythrin (PE) was covalently linked to the Ig epitope tag of human PD-L1-Ig and fluorescently-labeled PD-L1-Ig was used for binding studies with a Jurkat cell line over-expressing human PD-1 (Jurkat-PD-1). Briefly, 8×10^3 Jurkat-hPD-1 cells were seeded into 384 well plates in 20 μl of DMEM supplemented with 10% fetal calf serum. 100 nl of compound was added to cells followed by incubation at 37° C. for 2 h. Then, 5 μl of PE-labeled PD-L1-Ig (20 nM final), diluted in DMEM supplemented with 10% fetal calf serum. After 1 hour incubation, cells were fixed with 4% paraformaldehyde in dPBS containing 10 μg/ml Hoechst 33342 and then washed 3× in 100 μl dPBS. Data was collected and processed using a Cell Insight NXT High Content Imager and associated software.

Structure (SMILES)	pIC50
CC(C)C[C@H]1NC(=O)[C@H](CCCN)NC(=O)[C@H](Cc2ccc(O)cc2)NC(=O)[C@H](Cc2ccc(-c3ccccc3)cc2)NC(=O)[C@H](C(C)C)NC(=O)[C@H](Cc2c[nH]c3ccccc23)NC(=O)[C@H](CC(=O)O)NC(=O)[C@H](Cc2ccc(OCC(=O)O)cc2)NC(=O)[C@H](CCCNC(=N)N)NC(=O)CSC[C@@H](C(=O)N[C@@H](CCN)C(=O)NCCCCCCCCCCC(=O)O)NC(=O)[C@H](C(C)O)NC(=O)[C@H](C(C)C)NC(=O)[C@H](CC2CCCCC2)NC(=O)[C@H](CCN)NC1=O (stereo partly drawn) [Compound 3413] ({CH2CO}-RY(Carboxymethyl)DWV[Bip]Y[Orn][dL][Dab][Cha]V[Thr(3ξ)]C[Dab][Aun]-OH; thioether N-14)	7.48
CC(C)C[C@H]1NC(=O)[C@H](CCCN)NC(=O)[C@H](C(C)C)NC(=O)[C@H](Cc2ccc(-c3ccccc3)cc2)NC(=O)[C@H](C(C)C)NC(=O)[C@H](Cc2c[nH]c3ccccc23)NC(=O)[C@H](CC(=O)O)NC(=O)[C@H](Cc2ccc(C(=O)O)cc2)NC(=O)[C@H](Cc2ccc(OCC(=O)O)cc2)NC(=O)CSC[C@@H](C(=O)N[C@@H](CCCCN)C(=O)NCCOCCOCC(=O)NCCCCCCCCCCC(=O)O)NC(=O)[C@H](CCCCN)NC(=O)[C@H](C(C)C)NC(=O)[C@H](CC2CCCCC2)NC(=O)[C@H](CCN)NC1=O [Compound 2523] ({CH2CO}-Y(Carboxymethyl)[Phe(4-COOH)]DWV[Bip]V[Orn][dL][Dab][Cha]VKCK[AEEA][Aun]-OH; thioether N-14)	8.12
Cc1cccc(C[C@@H]2NC(=O)[C@H](CC(=O)O)NC(=O)[C@H](Cc3ccc(OCC(=O)O)cc3)NC(=O)[C@H](C)NC(=O)CSC[C@@H](C(=O)N[C@@H](CCN)C(=O)NCCOCCOCC(=O)NCCOCCOCC(=O)NCCOCCOCC(=O)NCCCCCCCCCCCCCCC(=O)O)NC(=O)[C@H](Cc3cnc[nH]3)NC(=O)[C@H](C(C)(C)O)NC(=O)[C@H](CC3CCCCC3)NC(=O)[C@H](CCN)NC(=O)[C@@H](CC(C)C)NC(=O)[C@H](CCCN)NC(=O)[C@H](Cc3ccc(C(=O)O)cc3)NC(=O)[C@H](Cc3ccc(-c4ccccc4)cc3)NC(=O)[C@H](Cc3ccc(C(=O)O)cc3)NC2=O)c1 [Compound 3856] ({CH2CO}-AY(Carboxymethyl)D[Phe(3-Me)][Phe(4-COOH)][Bip][Phe(4-COOH)][Orn][dL][Dab][Cha][Val(3-OH)]HC[Dab][AEEA][AEEA][AEEA]-{NH(CH2)14COOH}; thioether N-14)	7.03
CC(C)C[C@H]1NC(=O)[C@H](CCCN)NC(=O)[C@H](C(C)C)NC(=O)[C@H](Cc2ccc(-c3ccccc3)cc2)NC(=O)[C@H](C(C)C)NC(=O)[C@H](Cc2c[nH]c3ccccc23)NC(=O)[C@H](CC(=O)O)NC(=O)[C@H](Cc2ccc(OCC(=O)O)cc2)NC(=O)[C@H](CN)NC(=O)CSC[C@@H](C(=O)N[C@H](Cc2cnc[nH]2)C(=O)NCCCCCCCCCCC(=O)O)NC(=O)[C@H]([C@@H](C)O)NC(=O)[C@H](C(C)C)NC(=O)[C@H](CC2CCCCC2)NC(=O)[C@H](Cc2cnc[nH]2)NC1=O [Compound 1124] ({CH2CO}-[Dap]Y(Carboxymethyl)DWV[Bip]V[Orn][dL]H[Cha]VTC[dH][Aun]-OH; thioether N-14)	7.42
CC(C)C[C@H]1NC(=O)[C@H](CCCN)NC(=O)[C@H](C(C)C)NC(=O)[C@H](Cc2ccc(-c3ccccc3)cc2)NC(=O)[C@H](C(C)C)NC(=O)[C@H](Cc2c[nH]c3ccccc23)NC(=O)[C@H](CC(=O)O)NC(=O)[C@H](Cc2ccc(OCC(=O)O)cc2)NC(=O)[C@H](CN)NC(=O)CSC[C@@H](C(=O)NCCOCCOCC(=O)N[C@@H](CN)C(=O)NCCCCCCCCCCC(=O)O)NC(=O)[C@H]([C@@H](C)O)NC(=O)[C@H](C(C)C)NC(=O)[C@H](CC2CCCCC2)NC(=O)[C@H](Cc2cnc[nH]2)NC1=O [Compound 1095] ({CH2CO}-[Dap]Y(Carboxymethyl)DWV[Bip]V[Orn][dL]H[Cha]VTC[AEEA][Dap][Aun]-OH; thioether N-14)	7.80
Cc1cccc(C[C@@H]2NC(=O)[C@H](CC(=O)O)NC(=O)[C@H](Cc3ccc(OCC(=O)O)cc3)NC(=O)[C@H](CN)NC(=O)CSC[C@@H](C(=O)N[C@@H](CCN)C(=O)NCCOCCOCC(=O)NCCCCCCCCCCC(=O)O)NC(=O)[C@H](CCCN)NC(=O)[C@H](C(C)C)NC(=O)[C@H](CC3CCCCC3)NC(=O)[C@H](CCN)NC(=O)[C@@H](CC(C)C)NC(=O)[C@H](CCCN)NC(=O)[C@H](Cc3ccc(O)cc3)NC(=O)[C@H](Cc3ccc(-c4ccccc4)cc3)NC(=O)[C@H](Cc3cccc(F)c3)NC2=O)c1 [Compound 2262] ({CH2CO}-[Dap]Y(Carboxymethyl)D[Phe(3-Me)][Phe(3-F)][Bip]Y[Orn][dL][Dab][Cha]V[Orn]C[Dab][AEEA][Aun]-OH; thioether N-14)	8.08
Cc1cccc(C[C@@H]2NC(=O)[C@H](CC(=O)O)NC(=O)[C@H](Cc3ccc(OCC(=O)O)cc3)NC(=O)[C@H](Cc3ccncc3)NC(=O)CSC[C@@H](C(=O)N[C@@H](CCN)C(=O)NCCCCCCCCCCC(=O)O)NC(=O)[C@H](CO)NC(=O)[C@H](C(C)(C)O)NC(=O)[C@H](CC3CCCCC3)NC(=O)[C@H](CCN)NC(=O)[C@@H](CC(C)C)NC(=O)[C@H](CCCN)NC(=O)[C@H](Cc3ccc(OCC(=O)O)cc3)NC(=O)[C@H](Cc3ccc(-c4ccccc4)cc3)NC(=O)[C@H](c3ccccc3)NC2=O)c1 [Compound 2191] ({CH2CO}-[4Pal]Y(Carboxymethyl)D[Phe(3-Me)][Phg][Bip]Y(Carboxymethyl)[Orn][dL][Dab][Cha][Val(3-OH)]SC[Dab][Aun]-OH; thioether N-14)	7.70
Cc1cccc(C[C@@H]2NC(=O)[C@H](CC(=O)O)NC(=O)[C@H](Cc3ccc(OCC(=O)O)cc3)NC(=O)[C@H](CN)NC(=O)CSC[C@@H](C(=O)N[C@@H](CCN)C(=O)NCCOCCOCC(=O)NCCCCCCCCCCC(=O)O)NC(=O)[C@H](CN)NC(=O)[C@H](C(C)C)NC(=O)[C@H](CC3CCCCC3)NC(=O)[C@H](CCN)NC(=O)[C@@H](CC(C)C)NC(=O)[C@H](CCCN)NC(=O)[C@H](CCC(=O)O)NC(=O)[C@H](Cc3ccc(-c4ccccc4)cc3)NC(=O)[C@H](C(C)C)NC2=O)c1 [Compound 2661] ({CH2CO}-[Dap]Y(Carboxymethyl)D[Phe(3-Me)]V[Bip]E[Orn][dL][Dab][Cha]V[Dap]C[Dab][AEEA][Aun]-OH; thioether N-14)	7.96

Further molecules by rising pIC50, results first:

pIC50	Structure (SMILES)
6.41	Cc1cccc(C[C@@H]2NC(=O)[C@H](CC(=O)O)NC(=O)[C@H](Cc3ccc(OCC(=O)O)cc3)NC(=O)[C@H](CC(C)C)NC(=O)CSC[C@@H](C(=O)N[C@@H](CCN)C(=O)NCCOCCOCC(=O)N[C@@H](CCC(=O)O)C(=O)N[C@@H](CCC(=O)NCCOCCOCC(=O)NCCCCCCCCCCCCCCC(=O)O)C(=O)O)NC(=O)[C@H](CC(=O)O)NC(=O)[C@H](C(C)(C)O)NC(=O)[C@H](CC3CCCCC3)NC(=O)[C@H](CCN)NC(=O)[C@@H](CC(C)C)NC(=O)[C@H](CCCN)NC(=O)[C@H](Cc3ccc(C(=O)O)cc3)NC(=O)[C@H](Cc3ccc(-c4ccccc4)cc3)NC(=O)[C@H](Cc3ccc(C(=O)O)cc3)NC2=O)c1 [Compound 3892] ({CH2CO}-LY(Carboxymethyl)D[Phe(3-Me)][Phe(4-COOH)][Bip][Phe(4-COOH)][Orn][dL][Dab][Cha][Val(3-OH)]DC[Dab][AEEA]E[γGlu][AEEA]-{NH(CH2)14COOH}; thioether N-14)
6.90	Cc1cccc(C[C@@H]2NC(=O)[C@H](CC(=O)O)NC(=O)[C@H](Cc3ccc(C(N)=O)cc3)NC(=O)[C@H](Cc3ccncc3)NC(=O)CSC[C@@H](C(=O)N[C@@H](CCN)C(=O)NCCOCCOCC(=O)NCCCCCCCCCCC(=O)O)NC(=O)[C@H](CO)NC(=O)[C@H](C(C)(C)O)NC(=O)[C@H](CC3CCCCC3)NC(=O)[C@H](CCN)NC(=O)[C@@H](CC(C)C)NC(=O)[C@H](CCCN)NC(=O)[C@H](Cc3ccc(OCC(=O)O)cc3)NC(=O)[C@H](Cc3ccc(-c4ccccc4)cc3)NC(=O)[C@H](Cc3ccc(OCC(=O)O)cc3)NC2=O)c1 [Compound 3750] ({CH2CO}-[4Pal][Phe(4-CONH2)]D[Phe(3-Me)]Y(Carboxymethyl)[Bip]Y(Carboxymethyl)[Orn][dL][Dab][Cha][Val(3-OH)]SC[Dab][AEEA][Aun]-OH; thioether N-14)
7.74	Cc1cccc(C[C@@H]2NC(=O)[C@H](CC(=O)O)NC(=O)[C@H](Cc3ccc(OCC(=O)O)cc3)NC(=O)[C@H](CN)NC(=O)CSC[C@@H](C(=O)N[C@@H](C)C(=O)N[C@@H](CCN)C(=O)NCCCCCCCCCCC(=O)O)NC(=O)[C@H]([C@@H](C)O)NC(=O)[C@H](C(C)C)NC(=O)[C@H](CC3CCCCC3)NC(=O)[C@H](Cc3cnc[nH]3)NC(=O)[C@@H](CC(C)C)NC(=O)[C@H](CCCN)NC(=O)[C@H](C(C)C)NC(=O)[C@H](Cc3ccc(-c4ccccc4)cc3)NC(=O)[C@H](C(C)C)NC2=O)c1 [Compound 1112] ({CH2CO}-[Dap]Y(Carboxymethyl)D[Phe(3-Me)]V[Bip]V[Orn][dL]H[Cha]VTCA[Dab][Aun]-OH; thioether N-14)
8.15	CC(C)C[C@H]1NC(=O)[C@H](CCCN)NC(=O)[C@H](C(C)C)NC(=O)[C@H](Cc2ccc(-c3ccccc3)cc2)NC(=O)[C@H](C(C)C)NC(=O)[C@H](Cc2c[nH]c3ccccc23)NC(=O)[C@H](CC(=O)O)NC(=O)[C@H](Cc2ccc(OCC(=O)O)cc2)NC(=O)[C@H](Cc2ccc(OCC(=O)O)cc2)NC(=O)CSC[C@@H](C(=O)NCCOCCOCC(=O)N[C@@H](CCN)C(=O)NCCCCCCCCCCC(=O)O)NC(=O)[C@H](CCCNC(=N)N)NC(=O)[C@H](C(C)C)NC(=O)[C@H](CC2CCCCC2)NC(=O)[C@H](CCN)NC1=O [Compound 2540] ({CH2CO}-Y(Carboxymethyl)Y(Carboxymethyl)DWV[Bip]V[Orn][dL][Dab][Cha]VRC[AEEA][Dab][Aun]-OH; thioether N-14)
